US8927577B2, “Quinolinyl glucagon receptor modulators” (Pfizer Inc., priority 2011, dated 2015)

Assays:
[1] = target: T1, human glucagon receptor (Homo sapiens (Human), UniProt P47871); assay: Glucagon cAMP Assay; assay type: cell-based; details: CHOK1 cells stably transfected with the human glucagon receptor; 100 pM glucagon challenge; Kb from IC50 by modified Cheng-Prusoff equation
Experimental: The Cisbio cAMP detection assay is used to determine the ability of punitive glucagon antagonist to block glucagon induced cAMP production. Potential glucagon antagonists are re-suspended and diluted in 100% DMSO. Prior to use in the Glucagon cAMP assay 100×DMSO compound stocks are diluted 20× with DMEM-F12 media (Invitogen) containing either 0.1% or 4% BSA. 2 uls of 5× compound stocks are spotted into the appropriate wells of low binding white solid bottom 384 well plates (Corning). 2 uls of 5% DMSO or known glucagon antagonist are added to each plate to define the assay window. CHOK1 cells stably transfected with the human glucagon receptor are removed from culture flasks with cell dissociation buffer. Cell pellets are re-suspended, at a concentration of 8.3e^5 cells/ml in DMEM-F12 with or without 4% BSA and 200 uM IBMX. 6 uls of cell suspensions are added to the assay plates. Plates are incubated for 20 min at room temperature prior to the addition of a 100 pM challenge dose of glucagon. On a separate plate glucagon dose response curves are run to determine the EC50 of glucagon. After a 30 min room temperature incubation the reaction is terminated by the addition of lysis buffer containing the cAMP detection reagents. Plates are incubated for an additional 60 min at room temperature prior to being read on the Perkin Elmer fluorescent plate reader. Raw is converted to nM of cAMP produced based on a cAMP standard curve. Converted data is then analyzed using the Pfizer data analysis program. IC50 values are determined from the generated sigmoidal dose response curves. Kb values are the calculated using a modified Cheng-Prusoff equation.

[2] = target: T1, human glucagon receptor; assay: Human Glucagon SPA Assay; details: membrane from chem-1 cells stably transfected with the human glucagon receptor; 125 pM [125I]Glucagon-Cex; Ki by Cheng-Prusoff equation; read-out: Binding Ki
Experimental: The Glucagon SPA assay is used to determine the ability of test compounds to block the binding of glucagon-cex to the glucagon receptor. Test compounds are re-suspended and serially diluted in 100% DMSO. 1 ul of test compound at the desired concentrations is spotted into the appropriate wells of 96 well low binding white clear bottom plate (Corning). 1 ul of DMSO is spotted into total binding wells. 1 ul of a known glucagon antagonist at a concentration of 20 uM is added to non specific binding wells. […] All assay ingredients with the exception of test compounds are re-suspended in the following buffer; 50 mM Hepes pH 7.4; 5 mM MgCl2; 1 mM CaCl; 5% glycerol and 0.2% BSA. Following a 6-10 hr incubation at room temperature the amount of hot ligand bound to the cell membranes is determined by reading the plates on a Wallac Trilux radioactive emission detector. Data is analyzed using Pfizer's Data analysis program. IC50 values are then determined from the generated sigmoidal dose response curves. Ki values are calculated using Cheng-Prusoff equation.

T1 sequence (P47871 26-477): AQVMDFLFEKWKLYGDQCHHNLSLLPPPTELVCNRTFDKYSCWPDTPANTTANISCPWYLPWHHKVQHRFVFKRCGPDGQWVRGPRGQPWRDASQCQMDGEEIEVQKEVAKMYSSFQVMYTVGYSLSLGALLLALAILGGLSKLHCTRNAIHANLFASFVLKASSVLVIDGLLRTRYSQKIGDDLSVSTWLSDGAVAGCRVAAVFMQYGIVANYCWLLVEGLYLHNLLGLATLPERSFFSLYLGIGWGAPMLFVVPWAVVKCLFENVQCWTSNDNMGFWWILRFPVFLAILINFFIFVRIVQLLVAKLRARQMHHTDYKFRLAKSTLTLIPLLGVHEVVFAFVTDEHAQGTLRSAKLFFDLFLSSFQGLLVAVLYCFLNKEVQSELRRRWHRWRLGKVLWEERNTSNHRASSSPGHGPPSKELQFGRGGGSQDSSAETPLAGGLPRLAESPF

Row | Structure (SMILES) | Kb [1] [nM] | Ki [2] [nM]
1 | Cc1cc2ccc(F)cc2nc1NC(c1ccc(C(=O)NCCC(=O)O)cc1)C1CC(C)(C)C1 (racemic) [Example 21, (+/−)-3-{4-[(3,3-dimethyl-cyclobutyl)-(7-fluoro-3-methyl-quinolin-2-ylamino)-methyl]-benzoylamino}-propionic acid] | 160 | 133
2 | O=C(O)CCNC(=O)c1ccc(C(CCC(F)(F)F)Nc2cnc3ccccc3c2)cc1 (racemic) [Example 29, (+/−)-3-(4-(4,4,4-trifluoro-1-(quinolin-3-ylamino)butyl)benzamido)propanoic acid] | 930 | 930
3 | Cc1ccc2ncc(NC(CC(C)C)c3ccc(C(=O)NCCC(=O)O)cc3)cc2c1 (stereo not drawn) [Example 27, N-(4-{3-methyl-1-[(6-methylquinolin-3-yl)amino]butyl}benzoyl)-beta-alanine] | 250 | 160

These reach a lower Ki [2]. Values come first.

Row | Kb [1] [nM] | Ki [2] [nM] | Structure (SMILES)
4 | 69 | 76 | Cc1cc2ccccc2nc1NC(CC(C)C)c1ccc(C(=O)NCCC(=O)O)cc1 (single isomer, unassigned; isomer 1) [Example 30, 3-(4-(3-methyl-1-((3-methylquinolin-2-yl)amino)butyl)benzamido)propanoic acid, Isomer 1]
5 | 63 | 50 | CC1(C)CC(C(Nc2cnc3ccc(F)cc3c2)c2ccc(C(=O)NCCC(=O)O)cc2)C1 (racemic) [Example 23, (+/−)3-(4-((3,3-dimethylcyclobutyl)(6-fluoroquinolin-3-ylamino)methyl)benzamido)propanoic acid]
